What was measured:
Aspergillus niger = assay: Antifungal activity, spore germination inhibition growth assay (MTT); assay type: cell-based; conditions: A. niger spores, 24 h incubation at 28 °C, 4 replicates
Protocol: (§1) The fungal species Aspergillus niger and Botrytis cinerea came from the fungal collection of institute de Ciencias Agrarias-CSIC, Madrid, Spain where they are maintained. The antifungal activity of the hydrolate extract and fractions were determined using a modified spore germination inhibition growth assay (Sainz, P. et al. Chemical composition and biological activities of Artemisia pedemontana subsp. assoana essential oils and hydrolate. Biomol. 2019, 9). The hydrolate extract or fractions were dissolved in dimethyl sulfoxide (DMSO) at 1% and evaluated at the final concentrations indicated.
(§2) The spore suspensions were 7.5 × 10^5 cells/mL in NaCl 0.9% for A. niger and 1 × 10^7 cells/mL in distilled water for B. cinerea. Amphotericin B (5 µg/mL) was used as a positive control. The samples and spore suspensions (4 replicates) were placed on 96-well plates and incubated for 24 h (28 °C for A. niger and 25 °C for B. cinerea). After the incubation process, 25 µL of an MTT (5 mg/mL) plus menadione (1 mM) solution in RMPIMOPS were added, the plates were incubated again for 3 h, the medium was removed, 200 µL of acidic isopropanol (95% isopropanol and 5% 1 M HCl) was added, and the plates were incubated for another 30 min. The absorbance was read at 490 nm in an Elisa reader. The IC50 values (the effective dose to give 50% inhibition) were calculated by a regression curve of % spore germination inhibition on log dose.

H. lusitanicum = assay: Ixodicidal activity on larvae, cellulose contact toxicity; assay type: in vivo, Hyalomma lusitanicum; conditions: 24 h contact with treated cellulose, Probit Analysis
Protocol: H. lusitanicum engorged female ticks were collected in central Spain (Finca La Garganta, Ciudad Real) from their host (deer) and maintained at 22-24 °C and 70% RH until oviposition and egg hatching. Resulting larvae (4-6 weeks old) were used for the bioassays (Galisteo Pretel, A. et al. Germacrone derivatives as new insecticidal and acaricidal compounds: a structure-activity relationship. Mol. 2019, 24). Briefly, 50 µL of test solution were added to 25 mg of powdered cellulose at different concentrations (initial concentration of 20 mg/ml) and the solvent was evaporated. For each test, three replicates with 20 larvae each were used. Dead ticks were counted after 24 h of contact with the treated cellulose at the environmental conditions described, using a binocular magnifying glass. The larvicidal activity data are presented as percent mortality corrected according to Schneider-Orelli's formula (Schneider-Orelli, O. Entomologisches praktikum: Einführung in die land- und forstwirtschaftliche Insektenkunde; aus dem entomologischen institut der eidgenössischen technischen hochschule in Zürich; Sauerländer, 1947). Effective lethal doses (LC50 and LC90, the concentration that kills 50% or 90% of the organisms, respectively) were calculated by Probit Analysis (5 serial dilutions, STATGRAPHICS Centurion XVI, version 16.1.02, Statgraphics Technologies, Inc, P.O. Box 134, The Plains, Virginia 20198, USA).

Botrytis cinerea = assay: Antifungal activity, spore germination inhibition growth assay (MTT); assay type: cell-based; conditions: B. cinerea spores, 24 h incubation at 25 °C, 4 replicates
Protocol: as §1, §2

| Compound | LD50 (95% Confidence Limits) (Aspergillus niger) | LD50 (95% Confidence Limits) (H. lusitanicum) | LD90 (95% Confidence Limits) (H. lusitanicum) | LD50 (95% Confidence Limits) (Botrytis cinerea) |
| --- | --- | --- | --- | --- |
| C=CCSCC(C=O)=CC [Compound 1, 2-((allylthio)methyl)but-2-enal] | 78.07 (63.96-95.28)µg/mL | 8.42 (7.72-10.07) µg/mg | 15.62 (13.79-18.38) µg/mg |  |
| O=CC1=CCCSC1 [Compound 3, 5,6-dihydro-2H-thiopyran-3-carbaldehyde] | 16.96 (7.98-36.03) µg/mL |  | 3.57 (3.20-4.23) µg/mg | 8.79 (5.36-14.43) µg/mL |

Source: EP4494466A1, “SULFUR-CONTAINING COMPOUNDS AND USE THEREOF” (Consejo Superior de Investigaciones Científicas (CSIC), priority 2023, dated 2025)
